Assay results taken from patent US20070122843A1, “Isoflavonoid analogs and their metal complexes as anti-cancer agents” (priority 2005, published 2007).
Like-named read-outs stand apart in the source and are kept apart here.

Legend:
BT20 = experiment: MTT cell viability / proliferation assay, BT20; assay type: cell-based
Procedure: (§1) More specifically, the tumor cell lines MCF-7, MDA-MB 231 and COLO 357 were maintained in Dulbecco's modifed Eagle's medium (DMEM) with phenol red. […] The cell lines were cultured in a humidified incubator in an atmosphere of 5% CO2 and were maintained in continuous exponential growth by twice a week passage. Adherent cells at a logarithmic phase were detached by addition of 2-3 ml of trypsin (Gibco), 0.02% EDTA mixture and incubation at 37° C. […] Cells were incubated for 24 h at 37° C. to resume exponential growth. The test compounds were dissolved in DMSO (final concentration 0.1%) and added to the cells 24 h after seeding at varying concentrations. Control wells containing the culture medium, were included in each experiment. Cell proliferation was evaluated after 72 h by means of MTT assay. The biological effects of these compounds were studied against the hormone independent breast (BT20) and prostate (PC3) cancers as well as K-ras positive (Colo357) and K-ras negative (B×PC3) pancreatic cancer cell lines.

[1] = test system: breast, prostate and pancreatic cancer cell lines; experiment: MTT assay, statements over several cancer cell lines; assay type: cell-based
Procedure: (§2) The compounds were tested in multiple panels of breast (MCF-7, T47D, BT20 and MDA-MB231), prostate (PC3), and pancreatic (BxPC3, COLO357) cancer cell lines, using the dye 3-[4,5 dimethylthiazol-2-yl]-2,5 diphenyltetrazolium bromide (MTT assay) according to a method described in Banerjee, et al., Cancer Research. 2002 62, 4945.
(§3) More specifically, the tumor cell lines MCF-7, MDA-MB 231 and COLO 357 were maintained in Dulbecco's modifed Eagle's medium (DMEM) with phenol red. Cell lines T47D, BT20, PC3 and BxPC3 were routinely cultured in RPMI medium, each medium being supplemented with Penicillin (50U/ml), Streptomycin (50 μg/ml) and 10% fetal calf serum (FCS) (Gibco, Myclone). The cell lines were cultured in a humidified incubator in an atmosphere of 5% CO2 and were maintained in continuous exponential growth by twice a week passage.
(§4) Adherent cells at a logarithmic phase were detached by addition of 2-3 ml of trypsin (Gibco), 0.02% EDTA mixture and incubation at 37° C. Cells were plated (100 μL per well) in 48 well flat bottom microtiter plates at densities of 2000 to 5000 per cm^2 (MCF-7, MDA-MB321, T47D, BT20, PC3, B×PC3, COLO357) cells per well. Cells were incubated for 24 h at 37° C. to resume exponential growth. The test compounds were dissolved in DMSO (final concentration 0.1%) and added to the cells 24 h after seeding at varying concentrations. Control wells containing the culture medium, were included in each experiment. Cell proliferation was evaluated after 72 h by means of MTT assay.
The biological effects of these compounds were studied against the hormone independent breast (BT20) and prostate (PC3) cancers as well as K-ras positive (Colo357) and K-ras negative (B×PC3) pancreatic cancer cell lines.

PC3 = experiment: MTT cell viability / proliferation assay, PC3; assay type: cell-based, human
Procedure: as §1

COLO357 = experiment: MTT cell viability / proliferation assay, COLO357; assay type: cell-based
Procedure: as §1

Akt1/PKBα, active enzyme = target: T1, Akt1/PKBα, active enzyme (Homo sapiens, UniProt P31749); experiment: Fluorescence polarization Akt kinase assay; assay type: biochemical
T1 construct: purchased Upstate Biotechnology 14-276
Procedure: The serine threonine Akt kinase reaction was carried out in 96 well black plates in a total volume of 100 μl using Ser/Thr kinase polarization based assay kit from Invitrogen Part # P3103. Briefly, the Akt kinase assay reaction was set up in a total volume of 40 μl in the presence of different concentrations of inhibitor. Stock solutions of test compounds were made in DMSO. From DMSO stocks, 4× solutions of test compounds were prepared in 1× assay dilution buffer; 10 μl of this drug solution was used in the assay. […] The plate was incubated at 30° C. for 30 minutes. Enzyme reaction was quenched with 10 μl of 50 mM EDTA for 5 minutes. Anti phosphor serine antibody was added 25 μl/well followed by 10 μl of fluorescent tracer. The total volume was made up to 100 μl by adding 15 μl of fluorescence polarization assay dilution buffer. Appropriate controls and blanks were prepared. The plate was incubated for 1 h at RT and was analyzed for polarization at 435 excitation and 535 emission wavelength on Tecan Ultra microplate reader. Polarization values were normalized to the control and were plotted against log concentration of test compounds using Graph Pad Prism software. Sigmoidal dose response curve analysis was used to calculate the IC50 of test compounds.

MDA-MB 231 = experiment: MTT cell viability assay, MDA-MB 231; assay type: cell-based
Procedure: as §2, §3, §4

BxPC3 = experiment: MTT cell viability / proliferation assay, BxPC3; assay type: cell-based
Procedure: as §1

MCF-7 = experiment: MTT cell viability assay, MCF-7; assay type: cell-based
Procedure: as §2, §3, §4

[2] = test system: breast cancer cell line (T47D); experiment: Propidium iodide / Hoechst 33342 staining, apoptosis and cell viability; assay type: cell-based
Procedure: To provide further evidence of apoptosis, we carried out phase contrast microscopy using a mixture of propidium iodide (PI) and Hoechst dye 33342 to determine the integrity of cell membranes of cancer cells. The quantification of the apoptosis was carried out by cell count after staining with PI followed by visualization of treated cells by fluorescence analysis. […] After 5 minutes at 37° C. the cells were placed under a fluorescence microscope (Nikon Optiphot) with a filter block giving excitation at 380 nm and 480 nm.

T47D = experiment: MTT cell viability assay, T47D; assay type: cell-based; conditions: 72 h
Procedure: as §2, §3
Adherent cells at a logarithmic phase were detached by addition of 2-3 ml of trypsin (Gibco), 0.02% EDTA mixture and incubation at 37° C. Cells were plated (100 μL per well) in 48 well flat bottom microtiter plates at densities of 2000 to 5000 per cm^2 (MCF-7, MDA-MB321, T47D, BT20, PC3, B×PC3, COLO357) cells per well. Cells were incubated for 24 h at 37° C. to resume exponential growth. […] Cell proliferation was evaluated after 72 h by means of MTT assay.

[3] = test system: vascular endothelial growth factor (VEGF); experiment: VEGF ELISA in BxPC3 cells; assay type: cell-based, human; conditions: 10 μM, 20 μM, 72 h
Procedure: B×PC3 cells (0.1×10^6/well) were plated into 6-well plates and incubated in supplemented RPMI containing 10% FBS.

PC3 cells = experiment: Western blot of Akt, p-Akt and PARP in PC3 cells; assay type: cell-based, human; conditions: 10 and 20 μM, 72 h
Procedure: Control cells were incubated in the medium with Na2CO3 using same time point. After incubation the cells were lysed with This-HCl (62.5 mm) and 2% SDS. Protein concentration was then measured using […] protein assay (Pierce Chemical Co., Rockford, Ill.). Cell extracts were subjected to 10% SDS-PAGE and electrophoretically transferred to nitrocellulose membrane. Membranes were then incubated with monoclonal anti-Akt (epitome: amino acids 345-480 of Akt1, 1:500; Ontogeny, 26. San Diego, Calif.), anti-phosphor-Akt Ser473 (1:1000; Cell Signaling, Beverly, Mass.), primary monoclonal anti-PARP antibody (1:5000; Biomol, Plymouth Meeting, Pa.) and anti-β-actin (1:5000; Sigma) antibodies, washed with TTBS, and incubated with secondary antibody conjugated with peroxidase. The signal was then detected using the chemiluminescent detection system (Pierce, Rockford, Ill.).

COLO 357 cells = experiment: Orthotopic pancreatic tumor model using COLO 357 cells; assay type: in vivo
Procedure: The redox sensitive transcription factor NF-kB, is downstream of the Akt kinase protein and plays major role in the cell proliferation and metastasis and resistance in major cancers such as breast, prostate and pancreatic. […] Nuclear proteins were extracted from the tumor tissue as described previously (see, for example, Banerjee, et al, Cancer Research, Vo. 65, p. 9064 (2005)) and kept at −70° C. until use. Protein concentration was determined using the bicinchonic acid assay kit with BSA as the standard (Pierce Chemical Co., Rockford, Ill.). The incubation mixture included 25 mM DTT and 2.5% Tween 20 in a binding buffer. The DNA-protein complex formed was separated from free oligonucleotide on 8.0% native polyacralyamide gel using buffer containing 50 mM Tris, 200 mm glycine, pH 8.5, and 1 mM EDTA, and then visualized by Odyssey Infrared Imaging System using Odyssey Software Release 1.1.
Since the NF-κB pathway is regulated by Akt protein, the effects of the FPA-124 on NF-κB activity was studied in an in vivo experiment, specifically the well-established orthotopic pancreatic tumor model using COLO 357 cells.

[4] = test system: Colo357, BxPC3, BT20, and PC3 cells; experiment: Cell Death Detection ELISA apoptosis assay; assay type: cell-based; conditions: FPA-124, FPA-125, FPA-127 compared
Procedure: To determine whether the metal conjugates induce apoptosis in tumor cells, quantitative evaluation of apoptosis was carried out with a Cell Death Detection ELISA kit (Roche, Palo Alto, Calif.). Apoptosis was detected according to the protocol supplied by the manufacturer.
Since all copper compounds are redox active metal conjugates, we believe that redox triggered oxidative stress may be one of the underlying mechanisms for the observed apoptotic cell death in the present case. […] This observation is also in accordance with the favorable distortion factor calculated for the present copper compounds using EPR spectra, which factor helps stabilize cuprous and cupric species without dissociation of the conjugate.

[5] = 72 h, Table 1, read-out: MTT cell viability assay IC50 BT20
[6] = 72 h, Table 1, read-out: MTT cell viability assay IC50 PC3
[7] = FPA-102 25 mg/kg wt, i.v. on alternate days
[8] = 72 h, Table 1, read-out: MTT cell viability assay IC50 COLO357
[9] = 72 h, Table 1, read-out: MTT cell viability assay IC50 BxPC3

T1 sequence (P31749 whole entry): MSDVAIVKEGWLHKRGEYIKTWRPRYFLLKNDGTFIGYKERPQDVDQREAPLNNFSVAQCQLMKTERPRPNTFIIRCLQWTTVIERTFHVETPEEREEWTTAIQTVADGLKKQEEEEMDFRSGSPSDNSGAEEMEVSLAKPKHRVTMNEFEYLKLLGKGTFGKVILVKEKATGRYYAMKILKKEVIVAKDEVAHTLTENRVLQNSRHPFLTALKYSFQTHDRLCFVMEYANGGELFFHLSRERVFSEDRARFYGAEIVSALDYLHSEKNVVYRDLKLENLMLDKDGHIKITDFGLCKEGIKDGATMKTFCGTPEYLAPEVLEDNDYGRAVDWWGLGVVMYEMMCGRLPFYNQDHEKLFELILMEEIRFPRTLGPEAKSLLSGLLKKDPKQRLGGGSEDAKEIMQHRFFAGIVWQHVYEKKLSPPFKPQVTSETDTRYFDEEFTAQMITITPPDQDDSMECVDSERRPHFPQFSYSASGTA

## CC(=O)C1CCC2C3CCC4=CC(=NNC(N)=S)CCC4(C)C3CCC12C (stereo not drawn) [FPA-101, 17-acetyl-10,13-dimethyl-1,2,6,7,8,9,11,12,13,14,15,16,17-tetradecahydrocyclopenta[a]phenantnren-3-thiosemicarbazone]
BT20; Homo sapiens, BT-20, 72 h, Table 1, read-out: MTT cell viability assay IC50 BT20
  IC50: 53 µM
[1]; cell lines of Table 1
  antiproliferative action against the cell lines tested: moderate antiproliferative action
PC3; Homo sapiens, PC-3, 72 h, Table 1, read-out: MTT cell viability assay IC50 PC3
  IC50: 16 µM
COLO357; Homo sapiens, COLO357, 72 h, Table 1, read-out: MTT cell viability assay IC50 COLO357
  IC50: 13 µM
Akt1/PKBα, active enzyme
  concentration inhibiting Akt kinase activity: higher concentration
MDA-MB 231; Homo sapiens, MDA-MB-231, 72 h
  IC50: 25 µM
BxPC3; Homo sapiens, BXPC-3, 72 h, Table 1, read-out: MTT cell viability assay IC50 BxPC3
  IC50: 5 µM
MCF-7; Homo sapiens, MCF7, 72 h
  IC50: 20 µM

## CC(=O)C1CCC2C3CCC4=CC(=NNC(N)=S)CCC4(C)C3CCC12C.[Cl][Cu][Cl] (stereo not drawn) [FPA-102]
[2]; IC50 concentration, 24-48 h treatment
  apoptotic cells: ~95%
[2]; IC50 concentration, 3 h incubation
  non-viable cells: 40%
[2]; T47D, 10 μM, 72 hours
  cell death by uptake of propidium iodide: cells undergoing cell death by uptake of propidium iodide
T47D
  IC50: 5 µM
BT20; [5]
  IC50: 13 µM
[3]
  VEGF levels: decrease in the VEGF levels
[1]; MCF-7, MDA-MB 231, T47D, BT20, PC3, BxPC3, COLO357, read-out: IC50 values, range over the cell lines of Table 1
  IC50: 5 to 13 µM
PC3; [6]
  IC50: 9 µM
PC3 cells
  PARP degradation, Western blot: induces poly (ADP-ribose) polymerase degradation
  phosphor-Akt, Western blot: down regulates
COLO 357 cells; [7]
  body weight of treated mice vs control (toxicity): no significant change in the body weight
  tumor burden: decrease tumor burden
COLO 357 cells; treatment for 10 days, once every alternate day
  NF-κB in tumor tissue (EMSA): down-regulation of NF-κB
COLO 357 cells; tumor from treated mice
  tumor histology: marked necrosis and apoptosis
  viable part of tumor mass, histology: 20%
COLO357; [8]
  IC50: 9 µM
MDA-MB 231; 72 h
  IC50: 11 µM
BxPC3; [9]
  IC50: 12.7 µM
MCF-7; 72 h
  IC50: 6 µM

## CC(=O)C1CCC2C3CCC4=CC(=NNC(N)=S)CCC4(C)C3CCC12C.[Cl][Ni][Cl] (stereo not drawn) [FPA-103]
BT20; [5]
  IC50: > 100 µM
PC3; [6]
  IC50: > 100 µM
COLO357; [8]
  IC50: 20 µM
Akt1/PKBα, active enzyme
  concentration inhibiting Akt kinase activity: higher concentration
MCF-7; 72 h
  IC50: 7.5 µM

## CC(=O)C1CCC2C3CCC4=CC(=NNC(N)=S)CCC4(C)C3CCC12C.[Cl][Pt][Cl] (stereo not drawn) [FPA-104]
BT20; [5]
  IC50: 18 µM
PC3; [6]
  IC50: 18 µM
COLO357; [8]
  IC50: 7.3 µM
Akt1/PKBα, active enzyme
  concentration inhibiting Akt kinase activity: higher concentration
MDA-MB 231; 72 h
  IC50: 34 µM
BxPC3; [9]
  IC50: 5 µM
MCF-7; 72 h
  IC50: 22 µM

## NC1=[S+][Cu-2]([Cl])([Cl])[N+](=Cc2coc3ccccc3c2=O)N1 [FPA-124]
BT20; read-out: concentration for 50% cell kill, BT20 cells
  IC50: 7 µM
PC3; read-out: concentration for 50% cell kill, PC3 cells
  IC50: 10 µM
COLO 357 cells; FPA-124 study
  NF-κB activity in tumor tissue (EMSA): significantly decreased
  body weight of the treated animals (toxicity): no change in the body weight
  tumor load (pancreas weight): decrease in the tumor load
[4]
  apoptosis by ELISA, rank among metal conjugates: most active compound
COLO357; Table 2, read-out: MTT Cell Proliferation Assay IC50 COLO357
  IC50: 34 µM
Akt1/PKBα, active enzyme; read-out: Akt kinase activity IC50
  IC50: 0.1 µM
BxPC3; Table 2, read-out: MTT Cell Proliferation Assay IC50 BxPC3
  IC50: 55 µM

## O=c1c(-c2ccc(O)cc2)coc2cc(O)cc(O)c12 [Genistein, 4,5,7,-trihydroxyisoflavone, reference compound]
BT20; Homo sapiens, BT-20, Table 2, read-out: MTT Cell Proliferation Assay IC50 BT20
  IC50: 46 to 70 µM
[1]; Pancreatic cancer cell, Colo357, BxPC3, BT20, PC3, read-out: IC50 values in these multiple cancer cell lines
  IC50: > 40 µM
PC3; Homo sapiens, PC-3, Table 2, read-out: MTT Cell Proliferation Assay IC50 PC3
  IC50: 50 µM
COLO357; Homo sapiens, COLO357, Table 2, read-out: MTT Cell Proliferation Assay IC50 COLO357
  IC50: 50 µM
Akt1/PKBα, active enzyme; Table 2, read-out: Fluorescence Polarization Akt kinase Assay IC50
  IC50: > 70 µM
BxPC3; Homo sapiens, BXPC-3, Table 2, read-out: MTT Cell Proliferation Assay IC50 BxPC3
  IC50: 30 µM
